Results published in the NIST ThermoML archive (doi:10.1021/je060107n).

Test: mn = molality of the nth substance listed, in mol/kg
Details: 101 kPa, Liquid; for mass density: Pycnometric method; for viscosity: Capillary tube (Ostwald / Ubbelohde) method; for speed of sound: Linear variable-path acoustic interferometer

CC(=O)[O-].CC(=O)[O-].[Mg+2] [magnesium acetate] + O
Details	mass density [kg/m3]	speed of sound [m/s]	viscosity [mPa·s]
314.7 K, m1 = 1.608	1097.8	–	–
314.75 K, m1 = 2.134	1125.2	–	–
314.85 K, m1 = 2.622	1148.5	–	–
315 K, m1 = 5.165	1241.7	–	–
315.2 K, m1 = 0.1671	1003.8	–	–
315.25 K, m1 = 3.437	1186.9	–	–
315.55 K, m1 = 3.819	1198.5	–	–
315.65 K, m1 = 3.043	1166.4	–	–
315.85 K, m1 = 1.866	1110.4	–	–
316.05 K, m1 = 1.106	1068	–	–
316.05 K, m1 = 6.187	1269	–	–
316.25 K, m1 = 0.0414	994.01	–	–
316.35 K, m1 = 6.545	1276.6	–	–
316.7 K, m1 = 0.646	1037.6	–	–
316.95 K, m1 = 0.0831	996.85	–	–
317.05 K, m1 = 2.622	1147.3	–	–
317.1 K, m1 = 0.4247	1021.9	–	–
317.15 K, m1 = 1.608	1096.6	–	–
317.3 K, m1 = 2.134	1124.1	–	–
317.3 K, m1 = 5.732	1255.6	–	–
317.7 K, m1 = 3.819	1197.2	–	–
317.9 K, m1 = 6.187	1267.7	–	–
318 K, m1 = 4.547	1220.8	–	–
318.15 K, m1 = 0.0414	–	1539.3	0.6244
318.15 K, m1 = 0.0831	–	1546	0.6418
318.15 K, m1 = 0.1671	–	1552.2	0.6857
318.15 K, m1 = 0.4247	–	1587.9	0.8341
318.15 K, m1 = 0.646	–	1613.4	0.9967
318.15 K, m1 = 0.8751	–	1638.1	1.163
318.15 K, m1 = 1.106	–	1661.5	1.405
318.15 K, m1 = 1.354	–	1683.6	1.679
318.15 K, m1 = 1.608	–	1705.8	1.679
318.15 K, m1 = 1.866	–	1727.8	2.437
318.15 K, m1 = 2.134	–	1749.8	2.967
318.15 K, m1 = 2.411	–	1773.8	3.777
318.15 K, m1 = 2.622	–	1782.8	4.254
318.15 K, m1 = 3.043	–	1808.1	5.774
318.15 K, m1 = 3.437	–	1832	8.453
318.15 K, m1 = 3.819	–	1846.6	–
318.15 K, m1 = 4.001	–	–	12.63
318.15 K, m1 = 4.547	–	1868.1	–
318.15 K, m1 = 4.563	–	–	19.6
318.15 K, m1 = 4.929	–	–	24.03
318.15 K, m1 = 5.165	–	1882.7	–
318.15 K, m1 = 5.41	–	–	41.38
318.15 K, m1 = 5.732	–	1888.5	53.77
318.15 K, m1 = 6.187	–	–	87.61
318.2 K, m1 = 1.866	1109.3	–	–
318.25 K, m1 = 6.545	1275.3	–	–
318.5 K, m1 = 0.0414	992.99	–	–
318.6 K, m1 = 1.327	1079.4	–	–
318.6 K, m1 = 2.411	1138.3	–	–
318.85 K, m1 = 5.165	1239	–	–
319.1 K, m1 = 1.354	1080.6	–	–
319.15 K, m1 = 0.646	1036.5	–	–
319.25 K, m1 = 2.622	1146.1	–	–
319.35 K, m1 = 0.8751	1050.8	–	–
319.4 K, m1 = 0.0831	995.82	–	–
319.5 K, m1 = 1.608	1095.5	–	–
319.5 K, m1 = 2.134	1122.8	–	–
319.65 K, m1 = 3.437	1184.4	–	–
319.95 K, m1 = 3.043	1164.1	–	–
319.95 K, m1 = 4.547	1219.5	–	–
319.95 K, m1 = 6.545	1273.9	–	–
320 K, m1 = 0.1671	1001.7	–	–
320.85 K, m1 = 0.0414	991.94	–	–
320.85 K, m1 = 5.732	1253	–	–
320.95 K, m1 = 1.106	1065.8	–	–
321.4 K, m1 = 0.646	1035.4	–	–
321.55 K, m1 = 6.187	1265.1	–	–
321.7 K, m1 = 3.819	1194.7	–	–
321.8 K, m1 = 6.545	1272.5	–	–
322.15 K, m1 = 0.4247	1019.9	–	–
322.15 K, m1 = 3.043	1162.9	–	–
322.3 K, m1 = 0.1671	1000.8	–	–
322.45 K, m1 = 5.165	1236.5	–	–
322.85 K, m1 = 1.866	1107.1	–	–
323.05 K, m1 = 1.106	1064.8	–	–
323.05 K, m1 = 1.327	1077.2	–	–
323.05 K, m1 = 2.411	1135.8	–	–
323.15 K, m1 = 0.0414	990.94	1544.5	0.5741
323.15 K, m1 = 0.0831	–	1549.2	0.5893
323.15 K, m1 = 0.1671	–	1557.7	0.6282
323.15 K, m1 = 0.4247	–	1591.1	0.7596
323.15 K, m1 = 0.646	–	1615.2	0.9059
323.15 K, m1 = 0.8751	–	1637.7	1.052
323.15 K, m1 = 1.106	–	1662.2	1.271
323.15 K, m1 = 1.354	–	1683.9	1.503
323.15 K, m1 = 1.608	–	1703.7	1.503
323.15 K, m1 = 1.866	–	1725	2.166
323.15 K, m1 = 2.134	–	1746.5	2.61
323.15 K, m1 = 2.411	–	1767.3	3.295
323.15 K, m1 = 2.622	–	1778.6	3.695
323.15 K, m1 = 3.043	–	1800.3	4.961
323.15 K, m1 = 3.437	–	1825	7.136
323.15 K, m1 = 3.819	–	1837.4	–
323.15 K, m1 = 4.001	–	–	10.52
323.15 K, m1 = 4.547	–	1857.2	–
323.15 K, m1 = 4.563	–	–	15.97
323.15 K, m1 = 4.929	–	–	19.29
323.15 K, m1 = 5.165	–	1871	–
323.15 K, m1 = 5.41	–	–	32.16
323.15 K, m1 = 5.732	–	1874.6	41.44
323.15 K, m1 = 6.187	–	–	65.72
323.45 K, m1 = 6.545	1271.3	–	–
323.5 K, m1 = 2.622	1143.8	–	–
323.65 K, m1 = 1.354	1078.3	–	–
323.75 K, m1 = 0.646	1034.3	–	–
323.75 K, m1 = 3.437	1181.9	–	–
323.75 K, m1 = 4.547	1217.1	–	–
323.95 K, m1 = 0.8751	1048.7	–	–
323.95 K, m1 = 2.134	1120.5	–	–
324.05 K, m1 = 1.608	1093.3	–	–
324.1 K, m1 = 0.0831	993.76	–	–
324.25 K, m1 = 0.4247	1018.8	–	–
324.25 K, m1 = 5.165	1235.2	–	–
324.55 K, m1 = 5.732	1250.4	–	–
325.15 K, m1 = 6.187	1262.4	–	–
325.25 K, m1 = 6.545	1269.9	–	–
325.75 K, m1 = 3.819	1192.2	–	–
328.55 K, m1 = 6.187	1259.8	–	–
